We go through one compound from article PMC10224510, “Luteolin and Vernodalol as Bioactive Compounds of Leaf and Root Vernonia amygdalina Extracts: Effects on α-Glucosidase, Glycation, ROS, Cell Viability, and In Silico ADMET Parameters” (Pharmaceutics, 2023).

The assay deals with α-glucosidase (EC 3.2.1.20, Saccharomyces cerevisiae type I). The assay is described as follows: enzyme inhibition with pNPG substrate, absorbance at […] nm. Format: biochemical.

In turn, `O=c1cc(-c2ccc(O)c(O)c2)oc2cc(O)cc(O)c12` [luteolin] gave an IC50 of 16.2 µM.

As usually defined, the IC50 is the concentration needed to halve the response being measured.
